Source: ChEMBL document CHEMBL1134064, “Structure-activity relationship investigations of a potent and selective benzodiazepine oxytocin antagonist” (Bioorg Med Chem Lett, 2001)
pKi: −log10 of the molar value.

Legend:
[1] = Volume distribution was determined; format: ADME, organism-based, Canis lupus familiaris; details: dog, in vivo
[2] = Plasma clearance was determined; format: ADME, organism-based, Canis lupus familiaris; details: dog
[3] = molecular target: T1, Oxytocin receptor (Homo sapiens, UniProt P30559); assay: Inhibition of binding of [3H]oxytocin with human oxytocin receptor
T1 sequence (P30559 whole entry): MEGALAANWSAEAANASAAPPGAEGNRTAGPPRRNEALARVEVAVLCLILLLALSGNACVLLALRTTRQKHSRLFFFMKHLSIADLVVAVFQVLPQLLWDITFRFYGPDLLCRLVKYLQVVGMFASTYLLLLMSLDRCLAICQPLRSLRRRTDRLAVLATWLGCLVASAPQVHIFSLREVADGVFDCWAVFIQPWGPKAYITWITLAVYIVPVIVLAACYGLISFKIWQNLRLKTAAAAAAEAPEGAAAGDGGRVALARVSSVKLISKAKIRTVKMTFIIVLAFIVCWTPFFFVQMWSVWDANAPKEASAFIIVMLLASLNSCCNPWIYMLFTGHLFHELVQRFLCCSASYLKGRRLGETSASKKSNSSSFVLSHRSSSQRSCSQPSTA

[4] = Bioavailability; format: ADME, organism-based, Canis lupus familiaris; details: dog, in vivo

SMILES	Vd [1] [L/kg]	clearance [2] [L/h/kg]	pKi [3]	bioavailability [4] [%]
CC(=O)NC1N=C(c2ccccc2)c2ccccc2N(CC(=O)NCCc2cccc(Cl)c2)C1=O (centres undefined)	0.4	0.36	7.00	–
CC(=O)CCCC(=O)NC1N=C(C)c2ccccc2N(CC(=O)N[C@@H](Cc2ccc(Cl)c(Cl)c2)C(N)=O)C1=O (some centres undefined)	–	–	6.70	–
CC(=O)NC1N=C(c2ccccc2)c2ccccc2N(CC(=O)NCCc2ccc(Cl)c(Cl)c2)C1=O (centres undefined)	–	–	7.00	–
CC(=O)CCCC(=O)NC1N=C(c2ccccc2)c2ccccc2N(CC(=O)NC2CCc3ccccc3C2)C1=O (centres undefined)	0.2	0.018	< 5.30	–
CC(=O)CCCC(=O)NC1N=C(c2ccccc2)c2ccccc2N(CC(=O)NCCCc2cccc(Cl)c2)C1=O (centres undefined)	–	–	7.00	–
CC(=O)CCCC(=O)NC1N=C(c2ccccc2)c2ccccc2N(CC(=O)NCCc2cccc3ccccc23)C1=O (centres undefined)	–	–	7.80	–
CC(=O)NC1N=C(c2ccccc2)c2ccccc2N(CC(=O)N[C@@H](Cc2ccc(Cl)c(Cl)c2)C(N)=O)C1=O (some centres undefined)	–	–	7.60	–
CC(=O)NC1N=C(c2ccccc2)c2ccccc2N(CC(=O)NCCc2cccc3ccccc23)C1=O (centres undefined)	–	–	7.00	–
CC(=O)CCCC(=O)NC1N=C(c2ccccc2)c2ccccc2N(CC(=O)NCCc2ccccc2Cl)C1=O (centres undefined)	–	–	6.70	–
CC(=O)CCCC(=O)NC1N=C(c2ccccc2)c2ccccc2N(CC(=O)NCCc2ccccc2)C1=O (centres undefined)	–	–	6.50	–
NC(=O)[C@H](Cc1ccc(Cl)c(Cl)c1)NC(=O)CN1C(=O)C(NC(=O)CN2CCOCC2)N=C(c2ccccc2)c2ccccc21 (some centres undefined)	2.8	1.98	7.40	–
CS(=O)(=O)NC1N=C(c2ccccc2)c2ccccc2N(CC(=O)N[C@@H](Cc2ccc(Cl)c(Cl)c2)C(N)=O)C1=O (some centres undefined)	–	–	6.30	–
CC(=O)CCCC(=O)NC1N=C(C2CCCCC2)c2ccccc2N(CC(=O)N[C@@H](Cc2ccc(Cl)c(Cl)c2)C(N)=O)C1=O (some centres undefined)	–	–	7.50	–
CC(=O)CCCC(=O)NC1N=C(c2ccccc2)c2ccccc2N(CC(=O)N[C@@H](CC2CCCCC2)C(N)=O)C1=O (some centres undefined)	–	–	6.10	–
CC(=O)CCCC(=O)NC1N=C(Cn2ccnc2)c2ccccc2N(CC(=O)N[C@@H](Cc2ccc(Cl)c(Cl)c2)C(N)=O)C1=O (some centres undefined)	–	–	6.10	–
CC(=O)CCCC(=O)NC1N=C(c2ccccc2)c2ccccc2N(CC(=O)NCCc2cccc(Cl)c2)C1=O (centres undefined)	0.3	0.18	7.70	–
CC(=O)NC1N=C(c2ccccc2)c2ccccc2N(CC(=O)NCc2nc(-c3ccccc3)no2)C1=O (centres undefined)	–	–	6.10	–
CC(=O)CCCC(=O)NC1N=C(c2ccccc2)c2ccccc2N(CC(=O)NCCc2ccc(Cl)c(Cl)c2)C1=O (centres undefined)	0.2	0.24	7.60	12
CC(=O)CCCC(=O)NC1N=C(c2ccccc2)c2ccccc2N(CC(=O)N[C@@H](Cc2ccc(Cl)c(Cl)c2)C(N)=O)C1=O (some centres undefined)	0.6	3.72	8.10	> 20
CC(=O)CCCC(=O)NC1N=C(c2ccccc2)c2ccccc2N(CC(=O)NCCc2ccc3ccccc3c2)C1=O (centres undefined)	–	–	7.80	–
CC(=O)NC1N=C(c2ccccc2)c2ccccc2N(CC(=O)NCc2nc(-c3ccc(Cl)c(Cl)c3)cs2)C1=O (centres undefined)	–	–	< 5.30	–
CC(=O)CCCC(=O)NC1N=C(c2ccccc2)c2ccccc2N(CC(=O)NC2=NOC(c3ccccc3)C2)C1=O (centres undefined)	–	–	< 5.50	–
CC(=O)NC1N=C(c2ccccc2)c2ccccc2N(CC(=O)N[C@H](Cc2ccc(Cl)c(Cl)c2)C(N)=O)C1=O (some centres undefined)	–	–	6.10	–
CC(=O)NC1N=C(c2ccccc2)c2ccccc2N(CC(=O)N(C)CCc2cccc(Cl)c2)C1=O (centres undefined)	–	–	5.80	–
CC(=O)CCCC(=O)NC1N=C(c2ccccc2)c2ccccc2N(CC(=O)N[C@@H](Cc2ccc(F)cc2)C(N)=O)C1=O (some centres undefined)	–	–	7.10	–
